Measured values taken from patent US7183267B2, “β-lactamase inhibitors and methods of use thereof” (priority 2003, dated 2007).

Columns and labels:
Assay type in all cases: cell-based
[1] = system: methicillin sensitive S. aureus ATCC 25923 (MSSA); assay: MIC assay, broth microdilution, MSSA; conditions: Staphylococcus aureus, 24 h
Experimental: (3) methicillin sensitive S. aureus ATCC 25923 (MSSA). This strain was obtained from ATCC and was used as a control.
(§1) The strains were processed according to procedures recommended by ATCC, or procedures that are routinely used. Single colonies of each organism were picked for purification to generate pure working cultures. Prior to each experiment each strain was subcultured on a fresh Mueller-Hinton agar plate (MHA).
(§2) Inocula for the MIC assays were prepared by transferring a tiny portion of one colony from a MHA plate to 2 ml of Mueller-Hinton broth (MHB) such that the estimated cell density was about 10^7 colony forming unit (CFU)/ml. This cell suspension was then further diluted 10-fold (to 10^6 CFU/ml) by transferring the 2 ml cell suspension to 18 ml of MHB. Addition of 50 μl of this dilute cell suspension to 50 μl of growth medium yielded the desired cell density, namely about 5×10^4 CFU/well, or 5×10^5 CFU/ml.
(§3) The MIC value of oxacillin was determined using the broth microdilution procedure recommended by the National Committee of Clinical Laboratory Standards (NCCLS, 2000).
(§4) The MIC experiments were performed in duplicate in 96-well microtiter plates using MHB. A stock solution of 2.6 mg/0.5 ml was prepared in dimethylsulfoxide (DMSO). A total of 8 two-fold serial dilutions were made with DMSO. Initial oxacillin doses used were (μg/ml): 64, 32, 16, 8, 4, 2, 1, and 0.5. Doses were adjusted in the confirmatory experiment, if needed, in order to establish an actual MIC value.
(§5) To each well of a 96 well microtiter plate was added 47.5 μl of MHB. A volume of 2.5 μl of each dilution of oxacillin was then transferred to appropriate wells containing the medium. All wells, except the sterility control wells, were then inoculated with 50 μl of a diluted cell suspension to give a final volume of 100 μl and a final cell density of 5×10^4 CFU/well. The volume in the sterility control wells was adjusted to 100 μl with MHB. A sterile pipette tip was used to mix the contents of each well (one tip was used going from the low to the high concentration in the same column). The microtiter plates were covered with the lids and were placed in large Stratagene Big Blue plates (Cat. # 400041). Four large kimwipes moistened with tap water were placed near the edges of the Stratagene plates to prevent evaporation of the medium. The microtiter plates were incubated for at least 24 hours at 35° C. The plates were then evaluated for growth in each well. Controls included: medium sterility and negative control (medium and bacteria only).
(§6) The procedure used to determine the antimicrobial activity of the compounds of the present invention was identical to the broth microdilution procedure described above with the exception of the preparation of the stock solutions. Stock solution at concentration of 40.96 mg/0.5 ml was prepared in DMSO for each of the compounds. A total of 8 two-fold dilutions were then made in DMSO. A volume of 2.5 μl of each dilution was delivered to appropriate wells. The initial doses used were (μg/ml): 512, 256, 128, 64, 32, 16, 8, and 4.
(§7) A numerical code was used to evaluate the extent of growth as indicated below. • 0: absence of growth • 1: barely visible (faint) growth • 2: fair growth but less than the negative solvent control • 3: growth is equivalent to the negative solvent control.
(§8) The lowest dose at which no visible growth is observed was determined to be the MIC value.
(§9) MIC assays were performed with oxacillin and the four compounds. Each of the compounds was tested at the following 8 doses (μg/ml): 512, 256, 128, 64, 32, 16, 8, and 4. Oxacillin was tested at the following 8 doses (μg/ml): 64, 32, 16, 8, 4, 2, 1, and 0.5.

[2] = system: methicillin resistant S. aureus ATCC 33591 (MRSA-ATCC); assay: MIC assay, broth microdilution, MRSA-ATCC; conditions: Staphylococcus aureus, 24 h
Experimental: (1) methicillin resistant S. aureus ATCC 33591 (MRSA-ATCC). This strain was obtained from American Type Culture Collection (ATCC), Manassas, Md.;
as §1, §2, §3, §4, §5, §6, §7, §8, §9

[3] = system: methicillin resistant S. aureus from Stanford University Hospital (MRSA-SU); assay: Matrix system: oxacillin plus β-lactamase inhibitor, MRSA-SU
Experimental: as §5, §7, §8
The effect of the four compounds of the present invention on oxacillin resistance of the MRSA strains was determined using a matrix system. The β-lactamase inhibitors were tested at 5 doses against up to eleven concentrations of oxacillin. […] A 96-well microtiter plate was used for the matrix system. The procedure was identical to that described above for the MIC determination, with the exception that both oxacillin and one each of the β-lactamase inhibitors was added, 2.5 μl each, to the wells prior to addition of the test organisms.
Matrix Study:Oxacillin and Compound FL201 with MRSA-SU
Matrix Study: Oxacillin and Compound FL202 with MRSA-SU

[4] = system: methicillin resistant S. aureus from Stanford University Hospital (MRSA-SU); assay: MIC assay, broth microdilution, MRSA-SU; conditions: Staphylococcus aureus, MRSA, 24 h
Excerpt: (2) methicillin resistant S. aureus from Stanford University Hospital Clinical Microbiology/Virology Laboratory (MRSA-SU). […] Such Staphylococci are also resistant to all penicillins, and all cephalosporins, in addition to all β-lactamase inhibitor combinations (including ampicillin/sulbactarn, amoxicillin/clavulanic acid, piperacillin/tazobactam), imipenem, and meropenem; and
as §1, §2, §3, §4, §5, §6, §7, §8, §9

O=C(OCc1ccccc1)c1cc(B(O)O)cc([N+](=O)[O-])c1 [Compound F1201]
0.5 µg/mL: MIC (oxacillin) ([3]; Table 17, in presence of F1201 8 μg/ml)
<0.064 µg/mL: MIC (oxacillin) ([3]; Table 17, in presence of F1201 16 μg/ml)
2: growth score ([3]; Table 17, oxacillin 0, F1201 4 μg/ml) | growth score ([3]; Table 17, oxacillin 0, F1201 8 μg/ml) | growth score ([3]; Table 17, oxacillin 0.064 μg/ml + F1201 2 μg/ml) | growth score ([3]; Table 17, oxacillin 0.064 μg/ml + F1201 4 μg/ml) | growth score ([3]; Table 17, oxacillin 0.125 μg/ml + F1201 2 μg/ml) | growth score ([3]; Table 17, oxacillin 0.125 μg/ml + F1201 4 μg/ml) | growth score ([3]; Table 17, oxacillin 0.25 μg/ml + F1201 2 μg/ml) | growth score ([3]; Table 17, oxacillin 0.5 μg/ml + F1201 2 μg/ml)
64 µg/mL: MIC (oxacillin) ([3]; Table 17, in presence of F1201 2 μg/ml)
3: growth score ([3]; Table 17, oxacillin 0, F1201 2 μg/ml)
32 µg/mL: MIC [1] | MIC [2] | MIC [4]
16 µg/mL: MIC (oxacillin) ([3]; Table 17, in presence of F1201 4 μg/ml)
0: growth score ([3]; Table 17, oxacillin 0, F1201 32 μg/ml) | growth score ([3]; Table 17, oxacillin 0.064 μg/ml + F1201 16 μg/ml) | growth score ([3]; Table 17, oxacillin 0.064 μg/ml + F1201 32 μg/ml) | growth score ([3]; Table 17, oxacillin 0.125 μg/ml + F1201 16 μg/ml) | growth score ([3]; Table 17, oxacillin 0.125 μg/ml + F1201 32 μg/ml) | growth score ([3]; Table 17, oxacillin 0.25 μg/ml + F1201 16 μg/ml) | growth score ([3]; Table 17, oxacillin 0.25 μg/ml + F1201 32 μg/ml) | growth score ([3]; Table 17, oxacillin 0.5 μg/ml + F1201 8 μg/ml) | growth score ([3]; Table 17, oxacillin 0.5 μg/ml + F1201 16 μg/ml) | growth score ([3]; Table 17, oxacillin 0.5 μg/ml + F1201 32 μg/ml) | growth score ([3]; Table 17, oxacillin 1 μg/ml + F1201 8 μg/ml) | growth score ([3]; Table 17, oxacillin 1 μg/ml + F1201 16 μg/ml) | growth score ([3]; Table 17, oxacillin 1 μg/ml + F1201 32 μg/ml) | growth score ([3]; Table 17, oxacillin 2 μg/ml + F1201 8 μg/ml) | growth score ([3]; Table 17, oxacillin 2 μg/ml + F1201 16 μg/ml) | growth score ([3]; Table 17, oxacillin 2 μg/ml + F1201 32 μg/ml) | growth score ([3]; Table 17, oxacillin 4 μg/ml + F1201 8 μg/ml) | growth score ([3]; Table 17, oxacillin 4 μg/ml + F1201 16 μg/ml) | growth score ([3]; Table 17, oxacillin 4 μg/ml + F1201 32 μg/ml) | growth score ([3]; Table 17, oxacillin 16 μg/ml + F1201 4 μg/ml) | growth score ([3]; Table 17, oxacillin 16 μg/ml + F1201 8 μg/ml) | growth score ([3]; Table 17, oxacillin 16 μg/ml + F1201 16 μg/ml) | growth score ([3]; Table 17, oxacillin 16 μg/ml + F1201 32 μg/ml) | growth score ([3]; Table 17, oxacillin 64 μg/ml + F1201 2 μg/ml) | growth score ([3]; Table 17, oxacillin 64 μg/ml + F1201 4 μg/ml) | growth score ([3]; Table 17, oxacillin 64 μg/ml + F1201 8 μg/ml) | growth score ([3]; Table 17, oxacillin 64 μg/ml + F1201 16 μg/ml) | growth score ([3]; Table 17, oxacillin 64 μg/ml + F1201 32 μg/ml) | growth score ([3]; Table 17, oxacillin 128 μg/ml + F1201 2 μg/ml) | growth score ([3]; Table 17, oxacillin 128 μg/ml + F1201 4 μg/ml) | growth score ([3]; Table 17, oxacillin 128 μg/ml + F1201 8 μg/ml) | growth score ([3]; Table 17, oxacillin 128 μg/ml + F1201 16 μg/ml) | growth score ([3]; Table 17, oxacillin 128 μg/ml + F1201 32 μg/ml) | growth score ([3]; Table 17, oxacillin 256 μg/ml + F1201 2 μg/ml) | growth score ([3]; Table 17, oxacillin 256 μg/ml + F1201 4 μg/ml) | growth score ([3]; Table 17, oxacillin 256 μg/ml + F1201 8 μg/ml) | growth score ([3]; Table 17, oxacillin 256 μg/ml + F1201 16 μg/ml) | growth score ([3]; Table 17, oxacillin 256 μg/ml + F1201 32 μg/ml)
1: growth score ([3]; Table 17, oxacillin 0, F1201 16 μg/ml) | growth score ([3]; Table 17, oxacillin 0.064 μg/ml + F1201 8 μg/ml) | growth score ([3]; Table 17, oxacillin 0.125 μg/ml + F1201 8 μg/ml) | growth score ([3]; Table 17, oxacillin 0.25 μg/ml + F1201 4 μg/ml) | growth score ([3]; Table 17, oxacillin 0.25 μg/ml + F1201 8 μg/ml) | growth score ([3]; Table 17, oxacillin 0.5 μg/ml + F1201 4 μg/ml) | growth score ([3]; Table 17, oxacillin 1 μg/ml + F1201 2 μg/ml) | growth score ([3]; Table 17, oxacillin 1 μg/ml + F1201 4 μg/ml) | growth score ([3]; Table 17, oxacillin 2 μg/ml + F1201 2 μg/ml) | growth score ([3]; Table 17, oxacillin 2 μg/ml + F1201 4 μg/ml) | growth score ([3]; Table 17, oxacillin 4 μg/ml + F1201 2 μg/ml) | growth score ([3]; Table 17, oxacillin 4 μg/ml + F1201 4 μg/ml) | growth score ([3]; Table 17, oxacillin 16 μg/ml + F1201 2 μg/ml)
